According to patent US10370355B2, “Tetrahydroisoquinoline derivatives” (UCB Biopharma SPRL, priority 2016, dated 2019):

Target: T1, dopamine D1 receptor (Homo sapiens, UniProt P21728)
T1 construct: host or cells: LMtk (Ltk-) mouse fibroblast cells
Assay: cAMP HTRF potentiation assay (presence of EC20 dopamine)
Format: cell-based
Settings: potentiation of cAMP in presence of EC20 dopamine (1.1 nM); LMtk (Ltk-) mouse fibroblast cells expressing the dopamine D1 receptor
Source text: The present assay allows to measure respectively the effects of compounds of the Examples in the absence of dopamine (“activation assay”) and the effects of compounds of the Examples in the presence of dopamine (“potentiation assay”).
The potentiation assay measures the ability of compounds to increase the levels of cAMP produced by a low-threshold concentration of dopamine. The concentration of dopamine used ([EC20]) is designed to produce 20% stimulation compared to the maximal response (100%) seen with increasing the concentration of dopamine. To measure this potentiation we incubate increasing concentrations of the compound with the [EC2O] of dopamine and measure the potentiation as increases in cAMP production. The pEC50 of a compound is the −log 10 of the concentration of the compound which produces 50% of the potentiation of the cAMP levels and the Erel is the relative efficacy, defined as the maximal % potentiation produced by the compound compared to the maximal response produced by increasing concentrations of dopamine (Erel of 1=dopamine maximum response).
Cells were cultured at 37° C. in a humidified atmosphere of 5% CO2. Cells were grown in DMEM-F12+GlutaMAX™-I medium (GIBCO®, Invitrogen, Merelbeke, Belgium) containing 10% fetal bovine serum (BioWhittaker®, Lonza, Verviers, Belgium), 400 μg/mL Geneticin (GIBCO®), 100 IU/mL Penicillin and 100 IU/mL Streptomycin (Pen-Strep solution, BioWhittaker®).
The measurement of changes in intracellular cyclic adenosinemonophopshpate (cAMP) was determined using the HTRF cAMP dynamic assay kit from CisBio (Codolet, France). Using homogenous time-resolved fluoresence technology, the assay is based on competition between native cAMP produced by cells and cAMP labelled with the dye d2. The tracer binding is determined by an anti-cAMP antibody labeled with cryptate. The effects of the compound alone (agonism) was determined by performing the assay in the absence of dopamine, whilst the effect of the compound as a positive allosteric modulator (PAM) was determined in the presence of an EC20 concentration of dopamine. Cells (20,000 per well) are incubated in 384 plates for 1 hour at room temperature in a final volume of 20 μLHBSS (Lonza, with calcium, magnesium and HEPES buffer 20 mM, pH 7.4) containing: isobutyl methylxanthine (Sigma, 0.1 mM final), varying concentrations of test compound (typically […] to 10^−4.5M) in the presence and absence of dopamine (1.1 nM final). The reaction is then terminated and the cells lysed by adding the d2 detection reagent in lysis buffer (10 microL) and the cryptate reagent in lysis buffer (10 microl) according to manufacturer's instructions. This is then incubated for a further 60 min at room temperature and changes in HTRF fluorescent emission ratio determined according to manufacturer's instructions using an Envision plate reader (Perkin Elmer, Zaventem, Belgium) with laser excitation. All incubations were performed in duplicate and results were compared to a concentration-effect curve to dopamine. (10^−11M to 10^−6M).
Data was analyzed using Excel and PRISM (GraphPad Software) to obtain pEC50 and Erel using the 4-parameter logistic equation (DeLean et al, 1978) where Erel is the fitted maximal response of the test compound minus basal expressed as a percentage relative to that obtained with dopamine which was defined as 100%.

T1 sequence (P21728 whole entry): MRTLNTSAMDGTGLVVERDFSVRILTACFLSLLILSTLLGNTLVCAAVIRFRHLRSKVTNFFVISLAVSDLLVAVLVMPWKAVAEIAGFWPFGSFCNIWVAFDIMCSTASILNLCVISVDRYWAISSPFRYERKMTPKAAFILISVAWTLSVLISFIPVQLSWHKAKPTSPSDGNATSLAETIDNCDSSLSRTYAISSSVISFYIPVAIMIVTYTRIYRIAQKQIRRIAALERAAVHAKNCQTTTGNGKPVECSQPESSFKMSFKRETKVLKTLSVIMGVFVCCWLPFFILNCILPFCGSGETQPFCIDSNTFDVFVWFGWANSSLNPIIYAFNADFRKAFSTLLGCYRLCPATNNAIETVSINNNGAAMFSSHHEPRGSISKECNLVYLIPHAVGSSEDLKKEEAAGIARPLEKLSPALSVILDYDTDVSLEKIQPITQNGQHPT

| SMILES | EC50 [nM] |
| --- | --- |
| C[C@H]1c2cccc(C(C)(O)C(F)F)c2CCN1C(=O)Cc1c(Cl)c(C2CC2)cn2ncc(Cl)c12 (single isomer, unassigned) [Example 31] | 31.6 to 100 |
| C[C@H]1c2cccc([C@H](O)C(F)F)c2CCN1C(=O)Cc1c(Cl)ccc2onc(Cl)c12 [Example 1, 2-(3,5-dichloro-1,2-benzoxazol-4-yl)-1-[(1S)-5-[(1S)-2,2-difluoro-1-hydroxy-ethyl]-1-methyl-3,4-dihydro-1H-isoquinolin-2-yl]ethanone] | ≤ 31.6 |
| C[C@H]1c2cccc([C@@H](O)C(F)F)c2CCN1C(=O)Cc1c(Cl)ccc2nn(C)c(Cl)c12 [Example 8, 2-(3,5-dichloro-2-methyl-indazol-4-yl)-1-[(1S)-5-[(1R)-2,2-difluoro-1-hydroxy-ethyl]-1-methyl-3,4-dihydro-1H-isoquinolin-2-yl]ethanone] | ≤ 31.6 |
| C[C@H]1c2cccc([C@H](O)C(F)F)c2CCN1C(=O)Cc1c(Cl)ccc2nn(C)c(Cl)c12 [Example 9, 2-(3,5-dichloro-2-methyl-indazol-4-yl)-1-[(1S)-5-[(1S)-2,2-difluoro-1-hydroxy-ethyl]-1-methyl-3,4-dihydro-1H-isoquinolin-2-yl]ethanone] | 31.6 to 100 |
| C[C@H]1c2cccc([C@@H](O)C(F)F)c2CCN1C(=O)Cc1c(Cl)ccc2c1c(Cl)nn2C [Example 10, 2-(3,5-dichloro-1-methyl-indazol-4-yl)-1-[(1S)-5-[(1R)-2,2-difluoro-1-hydroxy-ethyl]-1-methyl-3,4-dihydro-1H-isoquinolin-2-yl]ethanone] | 31.6 to 100 |
| C[C@H]1c2cccc([C@H](O)C(F)F)c2CCN1C(=O)Cc1c(Cl)ccc2c1c(Cl)nn2C [Example 11, 2-(3,5-dichloro-1-methyl-indazol-4-yl)-1-[(1S)-5-[(1S)-2,2-difluoro-1-hydroxy-ethyl]-1-methyl-3,4-dihydro-1H-isoquinolin-2-yl]ethanone] | 31.6 to 100 |
| C[C@H]1c2cccc(C(O)(CF)CF)c2CCN1C(=O)Cc1c(Cl)cnc2[nH]nc(Cl)c12 [Example 18, 2-(3,5-dichloro-1H-pyrazolo[3,4-b]pyridin-4-yl)-1-[(1S)-5-[2-fluoro-1-(fluoromethyl)-1-hydroxy-ethyl]-1-methyl-3,4-dihydro-1H-isoquinolin-2-yl]ethanone] | 31.6 to 100 |
| C[C@H]1c2cccc([C@@](C)(O)CF)c2CCN1C(=O)Cc1c(Cl)cnc2c1c(Cl)nn2C [Example 19, 2-(3,5-dichloro-1-methyl-pyrazolo[3,4-b]pyridin-4-yl)-1-[(1S)-5-((1R)-2-fluoro-1-hydroxy-1-methyl-ethyl)-1-methyl-3,4-dihydro-1H-isoquinolin-2-yl]ethanone] | 31.6 to 100 |
| C[C@H]1c2cccc([C@](C)(O)CF)c2CCN1C(=O)Cc1c(Cl)cnc2c1c(Cl)nn2C [Example 20, 2-(3,5-dichloro-1-methyl-pyrazolo[3,4-b]pyridin-4-yl)-1-[(1S)-5-((1S)-2-fluoro-1-hydroxy-1-methyl-ethyl)-1-methyl-3,4-dihydro-1H-isoquinolin-2-yl]ethanone] | ≤ 31.6 |
| C[C@H]1c2cccc(C(O)(CF)CF)c2CCN1C(=O)Cc1c(Cl)cnc2c1c(Cl)nn2C [Example 23, 2-(3,5-dichloro-1-methyl-pyrazolo[3,4-b]pyridin-4-yl)-1-[(1S)-5-[2-fluoro-1-(fluoromethyl)-1-hydroxy-ethyl]-1-methyl-3,4-dihydro-1H-isoquinolin-2-yl]ethanone] | 31.6 to 100 |
| C[C@H]1c2cccc(C(O)(CF)CF)c2CCN1C(=O)Cc1c(Cl)ccc2c1c(Cl)nn2C [Example 28, 2-(3,5-dichloro-1-methyl-indazol-4-yl)-1-[(1S)-5-[2-fluoro-1-(fluoromethyl)-1-hydroxy-ethyl]-1-methyl-3,4-dihydro-1H-isoquinolin-2-yl]ethanone] | ≤ 31.6 |
| C[C@H]1c2cccc([C@](C)(O)CF)c2CCN1C(=O)Cc1c(Cl)ccn2ncc(Cl)c12 [Example 29, 2-(3,5-dichloropyrazolo[1,5-a]pyridin-4-yl)-1-[(1S)-5-[(1S)-2-fluoro-1-hydroxy-1-methyl-ethyl]-1-methyl-3,4-dihydro-1H-isoquinolin-2-yl]ethanone] | ≤ 31.6 |

The remaining lines, values ahead:

| EC50 [nM] | SMILES |
| --- | --- |
| ≤ 31.6 | C[C@H]1c2cccc(C(C)(O)C(F)F)c2CCN1C(=O)Cc1c(Cl)ccc2[nH]nc(Cl)c12 (single isomer, unassigned) [Example 6] |
| 31.6 to 100 | C[C@H]1c2cccc(C(C)(O)C(F)F)c2CCN1C(=O)Cc1c(Cl)ccc2nn(C)c(Cl)c12 (single isomer, unassigned) [Example 12] |
| ≤ 31.6 | C[C@H]1c2cccc(C(C)(O)C(F)F)c2CCN1C(=O)Cc1c(Cl)cnc2[nH]nc(Cl)c12 (single isomer, unassigned) [Example 16] |
| ≤ 31.6 | C[C@H]1c2cccc(C(C)(O)C(F)F)c2CCN1C(=O)Cc1c(Cl)cnc2c1c(Cl)nn2C (single isomer, unassigned) [Example 21] |
| 31.6 to 100 | C[C@H]1c2cccc(C(C)(O)C(F)F)c2CCN1C(=O)Cc1c(Cl)ccc2c1c(Cl)nn2C (single isomer, unassigned) [Example 26] |
| ≤ 31.6 | C[C@H]1c2cccc(C(C)(O)C(F)F)c2CCN1C(=O)Cc1c(Cl)c(C#N)cn2ncc(Cl)c12 (single isomer, unassigned) [Example 32] |
| ≤ 31.6 | C[C@H]1c2cccc([C@@](C)(O)CF)c2CCN1C(=O)Cc1c(Cl)ccc2[nH]nc(Cl)c12 [Example 2, 2-(3,5-dichloro-1H-indazol-4-yl)-1-[(1S)-5-[(1R)-2-fluoro-1-hydroxy-1-methyl-ethyl]-1-methyl-3,4-dihydro-1H-isoquinolin-2-yl]ethanone] |
| ≤ 31.6 | C[C@H]1c2cccc([C@](C)(O)CF)c2CCN1C(=O)Cc1c(Cl)ccc2[nH]nc(Cl)c12 [Example 3, 2-(3,5-dichloro-1H-indazol-4-yl)-1-[(1S)-5-[(1S)-2-fluoro-1-hydroxy-1-methyl-ethyl]-1-methyl-3,4-dihydro-1H-isoquinolin-2-yl]ethanone] |
| ≤ 31.6 | C[C@H]1c2cccc([C@@H](O)C(F)F)c2CCN1C(=O)Cc1c(Cl)ccc2[nH]nc(Cl)c12 [Example 4, 2-(3,5-dichloro-1H-indazol-4-yl)-1-[(1S)-5-[(1R)-2,2-difluoro-1-hydroxy-ethyl]-1-methyl-3,4-dihydro-1H-isoquinolin-2-yl]ethanone] |
| ≤ 31.6 | C[C@H]1c2cccc([C@H](O)C(F)F)c2CCN1C(=O)Cc1c(Cl)ccc2[nH]nc(Cl)c12 [Example 5, 2-(3,5-dichloro-1H-indazol-4-yl)-1-[(1S)-5-[(1S)-2,2-difluoro-1-hydroxy-ethyl]-1-methyl-3,4-dihydro-1H-isoquinolin-2-yl]ethanone] |
| ≤ 31.6 | C[C@H]1c2cccc([C@](C)(O)CF)c2CCN1C(=O)Cc1c(Cl)cnc2[nH]nc(Cl)c12 [Example 14, 2-(3,5-dichloro-1H-pyrazolo[3,4-b]pyridin-4-yl)-1-[(1S)-5-[(1S)-2-fluoro-1-hydroxy-1-methyl-ethyl]-1-methyl-3,4-dihydro-1H-isoquinolin-2-yl]ethanone] |
| ≤ 31.6 | C[C@H]1c2cccc([C@@](C)(O)CF)c2CCN1C(=O)Cc1c(Cl)cnc2[nH]nc(Cl)c12 [Example 15, 2-(3,5-dichloro-1H-pyrazolo[3,4-b]pyridin-4-yl)-1-[(1S)-5-[(1R)-2-fluoro-1-hydroxy-1-methyl-ethyl]-1-methyl-3,4-dihydro-1H-isoquinolin-2-yl]ethanone] |
| 31.6 to 100 | C[C@H]1c2cccc([C@@](C)(O)CF)c2CCN1C(=O)Cc1c(Cl)ccc2c1c(Cl)nn2C [Example 24, 2-(3,5-dichloro-1-methyl-indazol-4-yl)-1-[(1S)-5-[(1R)-2-fluoro-1-hydroxy-1-methyl-ethyl]-1-methyl-3,4-dihydro-1H-isoquinolin-2-yl]ethanone] |
| 31.6 to 100 | C[C@H]1c2cccc([C@](C)(O)CF)c2CCN1C(=O)Cc1c(Cl)ccc2c1c(Cl)nn2C [Example 25, 2-(3,5-dichloro-1-methyl-indazol-4-yl)-1-[(1S)-5-[(1S)-2-fluoro-1-hydroxy-1-methyl-ethyl]-1-methyl-3,4-dihydro-1H-isoquinolin-2-yl]ethanone] |
